Test [1] deals with BJ. Briefly: BJ-TERT fibroblast viability loss – cell-based, RAS-independent, luminescence, dose response (AID 1933). The test is classed as functional. The conditions noted are these: Homo sapiens.
In test [2] the test system is BJ. Briefly: BJ-TERT-LT-ST fibroblast viability loss – cell-based, RAS-independent, luminescence, dose response (AID 1935).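 Note: BJ fibroblasts immortalized with TERT plus LT and ST oncogenes.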 The note with it: Homo sapiens. The test is classed as functional.
A short description of test [3]: DRD fibroblast viability loss – cell-based, non-viral oncogenic, luminescence, dose response (AID 1934). The note with it: Homo sapiens. The test is classed as functional.
Test [4] relates to BJ. Description: growth inhibition of engineered Ras-driven BJ cells – cell-based, alamar blue fluorescence, cherrypicked samples, dose response (AID 2631).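 Note: confirmatory dose-response assay in RAS-dependent BJ fibroblasts engineered with TERT, LT and ST, with cytotoxicity read by fluorescence.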 The note with it: Homo sapiens. In kind it is functional.
Test [5] deals with BJ. Briefly: cells. The test is classed as functional, cell-based. The note with it: Homo sapiens.
Test [6] deals with ATP-dependent molecular chaperone HSP82 (Candida albicans (strain WO-1) (Yeast), UniProt C4YTQ8). Briefly: steroid-induced GRE reporter decrease in yeast – S. cerevisiae, luminescence, Hsp90 inhibitor project, dose response (AID 2400).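 Note: beta-galactosidase luminescence from glucocorticoid response element reporter as proxy for Hsp90 function; inhibitor potency where signal loss means Hsp90 inhibition.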 The test is classed as functional, cell-based.
Test [7] can be described thus: NIH-3T3 fibroblast cytotoxicity, dose response, cytotoxicity control, cell-based, fluorescence, Alamar Blue, secondary assay (AID 2327).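 Note: NIH-3T3 mouse fibroblasts cultured with fluconazole at 8 µg/mL.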 The test is classed as functional.
Test [8] addresses T1, Serine/threonine-protein phosphatase (Candida dubliniensis (strain CD36 / CBS 7987 / NCPF 3949 / NRRLY-17841) (Yeast), UniProt B9W6M3).
T1 sequence (B9W6M3 whole entry): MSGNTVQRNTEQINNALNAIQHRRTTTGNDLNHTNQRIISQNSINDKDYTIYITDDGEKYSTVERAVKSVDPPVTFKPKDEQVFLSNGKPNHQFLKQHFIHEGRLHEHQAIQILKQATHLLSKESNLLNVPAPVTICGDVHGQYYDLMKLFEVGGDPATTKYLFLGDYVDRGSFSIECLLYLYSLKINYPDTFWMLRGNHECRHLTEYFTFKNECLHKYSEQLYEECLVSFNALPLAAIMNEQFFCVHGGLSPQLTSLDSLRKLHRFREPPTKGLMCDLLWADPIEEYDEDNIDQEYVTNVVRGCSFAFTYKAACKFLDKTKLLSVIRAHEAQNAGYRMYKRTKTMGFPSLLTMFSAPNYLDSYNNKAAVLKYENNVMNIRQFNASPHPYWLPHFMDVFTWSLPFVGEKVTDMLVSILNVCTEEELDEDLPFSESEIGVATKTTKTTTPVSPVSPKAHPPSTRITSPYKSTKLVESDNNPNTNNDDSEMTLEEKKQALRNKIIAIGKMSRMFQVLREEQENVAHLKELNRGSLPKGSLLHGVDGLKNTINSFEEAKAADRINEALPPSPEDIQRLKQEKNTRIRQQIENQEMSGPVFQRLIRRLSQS
Description: blockers of CaCl2-induced CDRE-lacZ signaling – S. cerevisiae, luminescence, secondary, dose response (AID 2388).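 Note: yeast reporter cells carrying a calcineurin-responsive lacZ construct stimulated with calcium chloride; luminescent beta-galactosidase reporter signal in whole cells rather than isolated phosphatase activity; potency for inhibition where a drop in reporter signal means calcineurin blockade.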 In kind it is functional, cell-based.

A short description of test [9]: fluconazole-exposed Candida albicans growth modulators – fluorescence, retest, confirmation (AID 2467). The test is classed as functional, cell-based.
Test [10] can be described thus: reduced cellular PGC1a acetyl-lysine signal – cell-based, cherry-picked samples, dose response (AID 720514).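 Note: potency may reflect raised or lowered acetylation signal.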 The test is classed as functional.
Test [11] deals with Beta Lactamase (Pseudomonas aeruginosa, UniProt Q932Y6). Description: BLA reporter interference, concentration series – BLA reporter cells, FRET fluorescence, artefact control for NOD2-RIPK2 interaction inhibitor project, dose response (AID 651552). In kind it is functional, cell-based.
Test [12] can be described thus: non-specific 3'UTR reporter inhibition in Clone20-Shn3RL – cell-based, Renilla luciferase, cherry-picked, counter-screen for Shn3 inhibitor project, dose response (AID 624133). The test is classed as functional.
Test [13] is described as follows: Fluorescence-based cell-based high throughput dose response assay for inhibitors of the interaction of nucleotide-binding oligomerization domain containing 2 (NOD2) and the receptor-interacting serine-threonine kinase 2 (RIPK2). The test is classed as functional. The note with it: Homo sapiens.
Test [14] in a line: reduction of Shn3 3'UTR-driven luciferase in osteoblasts – cell-based, Clone20 osteoblasts, firefly luciferase, cherry-picked, dose response (AID 624132).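 Note: firefly luciferase luminescence from reporter carrying the Shn3 3'UTR in osteoblasts.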 In kind it is functional.
Test [15] addresses Large T antigen (Simian virus 40, UniProt P03070). In kind it is functional, Betapolyomavirus macacae.
Test [16] concerns the target Glucose-6-phosphate 1-dehydrogenase (Homo sapiens, UniProt P11413). Briefly: inhibition of Homo sapiens G6PD, dose series – biochemical, fluorescence, selectivity assay for P. falciparum G6PD inhibitor project, dose response (AID 504792). The test is classed as functional.
For test [17], the target named is DNA dC->dU-editing enzyme APOBEC-3G (Homo sapiens, UniProt Q9HC16). Briefly: Dose Response confirmation of small molecule APOBEC3G DNA Deaminase Inhibitors via a fluorescence-based single-stranded DNA deaminase assay. [Related pubchem assays (depositor defined):AID493012, AID493028]. The test is classed as functional.
For test [18], the target named is DNA dC->dU-editing enzyme APOBEC-3A (Homo sapiens, UniProt P31941). Description: A3A deaminase inhibition for selectivity – biochemical, dose response (AID 504722). The test is classed as functional.
Test [19] concerns the target Mitochondrial peptide methionine sulfoxide reductase (Bos taurus, UniProt P54149). Briefly: Absorbance-based biochemical high throughput dose response assay for activators of Methionine sulfoxide reductase A (MsrA). In kind it is functional.
Test [20] is described as follows: Luminescence Cell-Based Dose Response HTS to Identify Inhibitors of 5'UTR Stem-Loop Driven Prion Protein mRNA Translation in H4 Neuroglioblastoma Cells. [Related pubchem assays: 1827 (Project Summary), 1813 (Primary HTS)]. In kind it is functional.
The nature of test [21]: luciferase reporter signal suppression in cells – H4 neuroglioma cells, luminescence, dose response (AID 1990). The test is classed as functional, cell-based. Background: In a reporter assay the amount or activity of a reporter protein is the signal.
Test [22] in a line: alpha-synuclein stem-loop luciferase translation blockers – H4 neuroglioma cells, luminescence, confirmation (AID 1988). The test is classed as functional, cell-based.
Test [23] deals with INS1. Briefly: INS-1E survival protection against cytokine death – cell-based, luminescence, retest, dose response (AID 449756).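 Note: cell death triggered by IL-1 beta plus TNF-alpha plus IFN-gamma mixture; protective hits raise ATP signal compared with cytokine alone wells.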 The test is classed as functional. The conditions noted are these: Rattus norvegicus.
A short description of test [24]: HEK-293T cell viability reduction – luminescence, B-cell screen hits, cytotoxicity control for BCR NF-kB inhibitor project, dose response (AID 489021).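 Note: HEK-293T cells carrying an NF-kB luciferase reporter; cells exposed to compound for about 14 hours before viability readout.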 The test is classed as functional, cell-based.
The nature of test [25]: loss of viability in HepG2 cells – cell-based, CellTiter-Glo, cherry-picked, cytotoxicity control for Shn3 inhibitor project, dose response (AID 624134). The test is classed as functional. (In ATP-based viability assays light output follows the ATP content of the culture.)
Test [26] deals with Protein Wnt-3a (Mus musculus, UniProt P27467). Briefly: antagonism of Wnt3a pathway luciferase reporter – Wnt-LIGHT cells, luminescence, selectivity assay for Gli-SUFU antagonist project, dose response (AID 651570).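 Note: Wnt-LIGHT reporter cells stimulated with conditioned medium from Wnt3a-producing cells.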 In kind it is functional. The conditions noted are these: read-out: IC50_Mean.
The nature of test [27]: activation of miR-122 Renilla sensor silencing – cell-based, Huh7 psiCHECK-miR122, Renilla luciferase, cherry-picked, dose response (AID 651956).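 Note: huh7 hepatoma cells stably carrying a psiCHECK-2 miR-122 sensor plasmid; renilla luciferase signal reporting endogenous miR-122 activity after 48 h compound exposure.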 The test is classed as functional.
The target of test [28] is T2, Sentrin-specific protease 1 (Homo sapiens, UniProt Q9P0U3).
T2 sequence (Q9P0U3 whole entry): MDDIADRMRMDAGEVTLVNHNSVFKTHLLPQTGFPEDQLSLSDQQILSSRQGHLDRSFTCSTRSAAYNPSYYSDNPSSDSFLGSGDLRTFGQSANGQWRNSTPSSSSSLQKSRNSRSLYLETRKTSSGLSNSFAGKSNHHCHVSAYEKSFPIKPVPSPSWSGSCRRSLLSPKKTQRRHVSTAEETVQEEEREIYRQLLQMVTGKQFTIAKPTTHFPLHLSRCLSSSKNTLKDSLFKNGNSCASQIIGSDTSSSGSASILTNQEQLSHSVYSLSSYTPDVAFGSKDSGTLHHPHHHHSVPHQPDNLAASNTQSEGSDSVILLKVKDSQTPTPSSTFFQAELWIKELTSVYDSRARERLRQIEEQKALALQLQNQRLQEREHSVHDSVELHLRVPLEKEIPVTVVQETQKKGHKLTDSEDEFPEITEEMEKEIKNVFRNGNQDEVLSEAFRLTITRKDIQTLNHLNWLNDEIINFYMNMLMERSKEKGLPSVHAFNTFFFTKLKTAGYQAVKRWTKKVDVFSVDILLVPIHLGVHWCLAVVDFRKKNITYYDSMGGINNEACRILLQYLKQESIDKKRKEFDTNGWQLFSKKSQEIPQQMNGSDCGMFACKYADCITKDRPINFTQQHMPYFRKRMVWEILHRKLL
Description: SENP1 catalytic domain blockers, concentration series – biochemical, kinetic FRET, dose response (AID 651697). The test is classed as functional. The note with it: read-out: IC50_Mean.

Test [29] deals with T2, Sentrin-specific protease 1. Briefly: Dose response confirmation of small molecule inhibitors of the catalytic domain of the SUMO protease, SENP1 in a FRET assay. The test is classed as functional. The note with it: read-out: IC50_Mean.
Test [30] deals with Streptococcus sp. 'group A'. Description: Streptococcus pyogenes SK(-)GAS viability under kanamycin – luminescence, BacTiterGlo, confirmation, counter-screen for streptokinase expression inhibitor project, dose response (AID 1900). The test is classed as functional, organism-based. For orientation: A counterscreen serves to expose hits that act by an unwanted route or on another target.

The target of test [31] is T3, Probable nicotinate-nucleotide adenylyltransferase (Staphylococcus aureus (strain N315), UniProt P65502). In kind it is functional, Staphylococcus aureus subsp. aureus N315.
Test [32] has as its target T3, Probable nicotinate-nucleotide adenylyltransferase. In kind it is functional, Staphylococcus aureus subsp. aureus N315. The conditions noted are these: read-out: IC50_Mean.
Test [33] deals with Streptococcus. Description: GAS UMAA2166 growth inhibition – luminescence, BacTiterGlo, counter-screen for streptokinase expression inhibitor project, dose response (AID 1915).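 Note: potency for reduction of bacterial viability or growth.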 The test is classed as functional, organism-based.

The structures appear in SMILES notation. Active and inactive are the calls of the source.

As a reminder, the EC50 is the concentration at which the effect is half-maximal. The term AC50 denotes the concentration giving half of the maximal activity seen.

Sequence of ATP-dependent molecular chaperone HSP82 (C4YTQ8 whole entry): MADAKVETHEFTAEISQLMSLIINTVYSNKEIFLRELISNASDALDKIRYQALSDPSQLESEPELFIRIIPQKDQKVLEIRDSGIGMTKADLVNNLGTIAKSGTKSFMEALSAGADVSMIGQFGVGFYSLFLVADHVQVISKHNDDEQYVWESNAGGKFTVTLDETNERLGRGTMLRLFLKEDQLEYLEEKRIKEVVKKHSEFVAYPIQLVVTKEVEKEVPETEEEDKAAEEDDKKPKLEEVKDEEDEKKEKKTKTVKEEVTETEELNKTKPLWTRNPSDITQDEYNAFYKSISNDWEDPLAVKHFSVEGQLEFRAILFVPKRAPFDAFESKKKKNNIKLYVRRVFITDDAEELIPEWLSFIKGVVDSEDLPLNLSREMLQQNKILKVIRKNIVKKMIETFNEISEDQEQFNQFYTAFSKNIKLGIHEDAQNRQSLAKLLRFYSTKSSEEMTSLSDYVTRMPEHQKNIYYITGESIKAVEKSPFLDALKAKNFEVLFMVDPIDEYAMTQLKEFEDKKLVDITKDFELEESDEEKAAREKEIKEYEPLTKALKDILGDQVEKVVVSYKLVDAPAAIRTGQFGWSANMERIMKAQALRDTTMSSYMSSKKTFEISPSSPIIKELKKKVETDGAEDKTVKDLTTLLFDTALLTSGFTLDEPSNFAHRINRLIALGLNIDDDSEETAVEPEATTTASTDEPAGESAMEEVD
T3 sequence (P65502 whole entry): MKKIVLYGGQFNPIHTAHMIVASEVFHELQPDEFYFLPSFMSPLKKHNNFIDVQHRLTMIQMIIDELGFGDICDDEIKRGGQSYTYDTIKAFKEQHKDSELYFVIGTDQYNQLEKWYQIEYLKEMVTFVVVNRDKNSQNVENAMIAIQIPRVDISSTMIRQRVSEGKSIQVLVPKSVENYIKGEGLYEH
Sequence of Mitochondrial peptide methionine sulfoxide reductase (P54149 whole entry): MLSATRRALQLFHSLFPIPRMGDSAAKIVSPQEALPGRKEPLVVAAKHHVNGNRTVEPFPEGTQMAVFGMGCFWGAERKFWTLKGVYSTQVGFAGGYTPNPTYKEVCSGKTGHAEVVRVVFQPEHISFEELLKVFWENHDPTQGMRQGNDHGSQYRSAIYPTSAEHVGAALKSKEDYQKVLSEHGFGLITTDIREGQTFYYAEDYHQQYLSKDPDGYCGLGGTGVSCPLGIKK
Sequence of Protein Wnt-3a (P27467 whole entry): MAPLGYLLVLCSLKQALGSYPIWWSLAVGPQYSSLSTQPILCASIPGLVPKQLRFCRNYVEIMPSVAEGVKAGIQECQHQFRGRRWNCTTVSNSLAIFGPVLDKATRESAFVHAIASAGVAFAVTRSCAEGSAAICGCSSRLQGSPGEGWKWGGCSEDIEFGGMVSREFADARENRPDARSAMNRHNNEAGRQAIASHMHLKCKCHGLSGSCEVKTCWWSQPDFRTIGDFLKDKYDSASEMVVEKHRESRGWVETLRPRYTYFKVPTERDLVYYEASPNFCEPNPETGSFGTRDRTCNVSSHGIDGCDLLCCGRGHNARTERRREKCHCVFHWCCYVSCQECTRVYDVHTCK
Sequence of Large T antigen (P03070 whole entry): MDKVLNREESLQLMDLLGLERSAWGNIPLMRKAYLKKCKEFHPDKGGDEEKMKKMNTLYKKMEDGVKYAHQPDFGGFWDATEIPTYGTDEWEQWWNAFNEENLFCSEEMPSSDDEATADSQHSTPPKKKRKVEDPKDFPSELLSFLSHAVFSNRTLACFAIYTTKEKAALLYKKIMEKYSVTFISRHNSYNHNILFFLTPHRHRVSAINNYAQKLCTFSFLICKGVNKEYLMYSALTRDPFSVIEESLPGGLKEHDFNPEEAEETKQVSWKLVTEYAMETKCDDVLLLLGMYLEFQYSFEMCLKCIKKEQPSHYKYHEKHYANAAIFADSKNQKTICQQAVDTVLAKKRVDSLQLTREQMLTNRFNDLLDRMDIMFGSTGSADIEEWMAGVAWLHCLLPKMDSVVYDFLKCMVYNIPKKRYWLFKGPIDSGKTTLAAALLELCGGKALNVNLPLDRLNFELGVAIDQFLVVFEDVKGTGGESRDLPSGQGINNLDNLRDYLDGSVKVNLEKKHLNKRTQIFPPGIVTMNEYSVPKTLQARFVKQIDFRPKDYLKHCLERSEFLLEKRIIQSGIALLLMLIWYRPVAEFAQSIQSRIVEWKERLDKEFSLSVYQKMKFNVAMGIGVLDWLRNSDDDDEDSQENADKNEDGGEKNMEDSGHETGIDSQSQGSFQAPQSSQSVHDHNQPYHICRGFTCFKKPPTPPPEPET
Sequence of DNA dC->dU-editing enzyme APOBEC-3G (Q9HC16 whole entry): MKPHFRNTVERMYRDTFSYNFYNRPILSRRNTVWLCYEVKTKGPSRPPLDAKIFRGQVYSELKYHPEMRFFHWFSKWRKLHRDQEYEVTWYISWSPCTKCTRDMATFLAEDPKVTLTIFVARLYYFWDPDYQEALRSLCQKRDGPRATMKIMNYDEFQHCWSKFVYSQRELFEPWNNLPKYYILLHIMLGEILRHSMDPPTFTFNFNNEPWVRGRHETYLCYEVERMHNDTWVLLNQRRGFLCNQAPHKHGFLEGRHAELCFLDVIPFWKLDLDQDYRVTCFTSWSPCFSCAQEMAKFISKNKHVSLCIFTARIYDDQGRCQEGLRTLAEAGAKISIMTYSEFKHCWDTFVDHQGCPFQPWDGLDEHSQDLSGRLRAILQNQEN
Sequence of DNA dC->dU-editing enzyme APOBEC-3A (P31941 whole entry): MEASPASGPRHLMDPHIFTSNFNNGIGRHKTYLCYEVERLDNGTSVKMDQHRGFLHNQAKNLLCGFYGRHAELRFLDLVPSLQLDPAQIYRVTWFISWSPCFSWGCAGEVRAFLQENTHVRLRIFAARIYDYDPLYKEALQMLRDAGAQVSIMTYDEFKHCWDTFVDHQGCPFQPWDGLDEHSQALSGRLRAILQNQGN
Sequence of Beta Lactamase (Q932Y6 whole entry): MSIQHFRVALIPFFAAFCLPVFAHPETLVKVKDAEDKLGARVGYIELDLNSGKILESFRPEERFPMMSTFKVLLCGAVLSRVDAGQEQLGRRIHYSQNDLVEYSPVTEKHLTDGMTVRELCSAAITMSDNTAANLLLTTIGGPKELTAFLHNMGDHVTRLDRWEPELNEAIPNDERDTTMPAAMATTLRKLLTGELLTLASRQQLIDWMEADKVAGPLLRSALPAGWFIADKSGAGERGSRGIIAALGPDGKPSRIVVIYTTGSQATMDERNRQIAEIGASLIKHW
Sequence of Glucose-6-phosphate 1-dehydrogenase (P11413 whole entry): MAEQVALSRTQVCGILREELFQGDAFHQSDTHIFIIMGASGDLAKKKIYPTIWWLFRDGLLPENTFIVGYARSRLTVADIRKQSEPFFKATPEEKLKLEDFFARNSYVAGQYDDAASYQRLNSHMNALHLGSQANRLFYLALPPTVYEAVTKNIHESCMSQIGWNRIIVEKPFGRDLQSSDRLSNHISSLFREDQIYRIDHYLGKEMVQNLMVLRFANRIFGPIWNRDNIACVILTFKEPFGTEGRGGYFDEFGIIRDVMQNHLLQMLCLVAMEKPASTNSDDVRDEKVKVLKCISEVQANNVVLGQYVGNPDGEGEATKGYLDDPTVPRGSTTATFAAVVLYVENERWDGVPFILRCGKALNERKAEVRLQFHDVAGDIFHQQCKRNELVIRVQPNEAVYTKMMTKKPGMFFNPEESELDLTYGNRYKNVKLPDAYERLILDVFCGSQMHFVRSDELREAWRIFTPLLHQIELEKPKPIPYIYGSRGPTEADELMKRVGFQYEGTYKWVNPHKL

As to `CC1=CC(=O)C=C(C)C1=NOc1ccccc1[N+](=O)[O-]`, the EC50 in test [1] is 17.2 µM (inconclusive); in test [2] it was > 75 µM (not active); in test [3], > 150 µM (not active); in [4], > 66.7 µM (inactive); in test [5] it was 11.1 µM (inconclusive).
For `CN(C)S(=O)(=O)Oc1cccc(C(=O)Nc2cccc(Cl)c2)c1`, the EC50 is 24.7 µM (active) in test [6], > 150 µM (inactive) in test [7], > 180 µM (inactive) in test [8] and 2.39 µM (active) in test [9].
In the case of `COc1ccc(CC2NCC(O)C2OC(C)=O)cc1` (stereo not drawn), the AC50 in [10] is 0.308 µM (active); in test [12], 1.09 µM (active); in test [14], < 0.26 µM (active). The IC50 in [11] and in test [13] was 49.7 µM (inactive) each time.
For the molecule `c1ccc(SSc2ccccn2)nc1`, the IC50 in test [15] was > 100 µM (active); in [16], > 80 µM (inactive); in test [17] it was 3.88 µM (active); in test [18], > 100 µM (inactive). The EC50 in test [19] is > 104 µM (inactive).
Consider `CC1CC(C)CN(S(=O)(=O)c2ccc(C(=O)NCCCn3ccnc3)cc2)C1` (stereo not drawn), for which the EC50 is 0.873 µM (active) in test [20]; 0.527 µM (active) in [21]; > 150 µM (not active) in test [1]; 4.2 µM (inconclusive) in test [2]; 10 µM (inconclusive) in test [3]; 0.163 µM (active) in test [22]. Also, the half-maximal effective concentration (EC50) in [4] was 5.61 µM (active); in [5], 5.76 µM (inconclusive). The AC50 in test [23] is 0.437 µM (active). Moreover, the IC50 in test [24] was > 80 µM (inactive).
For `COc1cc(NS(=O)(=O)c2ccc(C)cc2C)cc(OC)c1OC`, the AC50 in test [25] is 5.37 µM (active); in test [14] it was 4.95 µM (active). In addition, the IC50 in test [26] was 1.38 µM (active).
As to `COc1ccc(S(=O)(=O)Nc2cc(C)cc(C)n2)c2ccccc12`, in [27], the AC50 is 13.4 µM (active).
With `O=[N+]([O-])c1ccc(C=NNc2ccccc2)cc1`, the values for the IC50 in [28] and in test [29] were 21.5 µM (inactive) and 7.2 µM (active), respectively.
Take `N=C1SC(c2ccccc2)C(=O)N1c1ncc(Cc2ccccc2Cl)s1` (stereo not drawn): the 50% effective concentration (EC50) is 0.249 µM (active) in test [30] and 3.47 µM (active) in test [33]. The IC50 is 4.35 µM (active) in test [31] and 16 µM (active) in test [32].
On to `COc1ccc(C2c3ccc4ccccc4c3Oc3ncn(CCN4CCOCC4)c(=N)c32)cc1` (stereo not drawn), for which the EC50 in test [6] is > 160 µM (inactive); in test [7], > 160 µM (inactive); in test [8] it was > 180 µM (inactive); in test [9], 1.9 µM (active).

These data come from ChEMBL document CHEMBL1201862, “PubChem BioAssay data set” (2004).
